Where a name gives a salt, the structure may show the parent alone.
Assays:
[1] = system: nerve injury induced mechanical allodynia; test: Chung model of neuropathic pain (L5-L6 spinal nerve ligation, tactile allodynia, von Frey); assay type: in vivo; settings: rat; for mechanical paw withdrawal threshold (PWT): i.p.
Procedure: Animals: Male Sprague-Dawley rats (Charles River, Wilmington, Mass.) weighing 120-150 grams at time of surgery were utilized. These animals were group housed in AAALAC approved facilities at Abbott Laboratories in a temperature-regulated environment with lights on between 0700 and 2000 hours. Food and water was available ad libitum except during testing. All animal handling and experimental protocols were approved by an institutional animal care and use committee (IACUC). All experiments were performed during the light cycle.
Chemicals: 5-[(2R)-Azetidin-2-ylmethoxy]-2-chloropyridine (Compound A, 1-100 nmol/kg) and 3-(3-pyridin-3-yl)-1,2,4-oxadiazol-5-yl)benzonitrile (α4β2 PAM Compound 1, 1-35 μmol/kg, i.p.) was used. Compound A and D was prepared in saline and injected in solution in a volume of 2 ml/kg body weight 30 minutes before behavioral evaluation. Compound 1,3-(3-(pyridin-3-yl)-1,2,4-oxadiazol-5-yl)benzonitrile, was prepared in 30% hydroxybetacyclodextrin and injected in solution in a volume of 4 ml/kg body weight immediately before Compound A. For studies with Compound D, the doses tested ranged from 0.3-30 μmol/kg i.p.
Experimental Procedure: To produce neuropathic pain, tight ligation of the L5-L6 spinal nerves was performed. As previously described in detail by Kim and Chung (Kim S H and Chung J M (1992), Pain 50: 355), following sterilization procedures, a 1.5 cm incision was made dorsal to the lumbosacral plexus. The paraspinal muscles (left side) were separated from the spinous processes, the L5 and L6 spinal nerves isolated, and tightly ligated with 3-0 silk thread. Following hemostasis, the wound was sutured and coated with antibiotic ointment. The rats were allowed to recover and then placed in a cage with soft bedding for 7-14 days before behavioral testing for mechanical allodynia.
Tactile allodynia was measured using calibrated (force; g) von Frey filaments (Stoelting, Wood Dale, Ill.). Briefly, rats were placed into individual plexiglass containers and allowed to acclimate for 15-20 minutes before testing. Withdrawal threshold was determined by increasing and decreasing stimulus intensity and estimated using a Dixon non-parametric test (Chaplan et al., 1994; Chaplan S R, Bach F W, Pogrel J W, Chung J M and Yaksh T L (1994) J Neurosci Methods 53:55-63). Only rats with threshold scores ≦4.5 g were considered allodynic and utilized in further testing. A percent of maximal possible effect (% M.P.E.) of the tested compounds was calculated according to the formula: ([post-drug threshold]−[baseline threshold])/([maximum threshold]−[baseline threshold])×100%, where maximum threshold was equal to 15 g.
Statistical analysis: Analysis of the in vivo data was carried out using analysis of variance. Where appropriate, Bonferroni's Multiple Comparison Test was used for post-hoc analysis. The level of significance was set at p less than 0.05. Data are presented as mean ±S.E.M.

[2] = target: T1, human α4β2 nicotinic acetylcholine receptor (Homo sapiens, UniProt P17787+P43681); test: Calcium flux (FLIPR) assay, HEK-293 cells expressing human α4β2 nAChR; assay type: cell-based; settings: for calcium response of partial agonist alone: without PAM; for calcium response of partial agonist co-applied with PAM: co-applied with PAM Compound 1, α4β2 nAChRs; for Activity (allosteric effects—potentiation of fluorescence responses): α4β2 positive allosteric modulation, calcium fluorescence (FLIPR); for potency (EC50 values) for activation of α4β2 nAChRs in the presence vs absence of PAM: presence and absence of α4β2 PAM Compound 1, FIG. 5
T1 construct: expressed in transfected cells
Procedure: (§1) Experimental Procedure: Human embryonic kidney (HEK) 293 cells stably expressing human α4β2 or α3β4 combinations are grown to confluency in 162 cm^2 tissue culture flasks in DMEM media supplemented with 10% FBS and 25 μg/ml zeocin and 200 μg/ml hygromycin B. IMR-32 neuroblastoma cells (ATCC) are grown to confluency in 162 cm^2 tissue culture flasks in minimum essential media supplemented with 10% FBS and 1 mM sodium pyruvate, 1% non-essential amino acids and 1% antibiotic-antimycotic. The cells are then dissociated using cell dissociation buffer and 100-150 μl per well of 3.5×10^5 cells/ml cell suspension (˜50,000-100,000 cells/well) was plated into 96-well black plates (poly-D-lysine precoated) with clear bottom and maintained for 24-48 hours in a tissue culture incubator at 37° C. under an atmosphere of 5% CO2: 95% air. Other clonal cell lines or primary cell cultures that express endogenous α4* nicotinic receptors may also be used in this assay. Calcium flux was measured using calcium-3 assay kit (Molecular Devices, Sunnyvale, Calif.) or fluo-4 (Invitrogen). A stock solution of the dye was prepared by dissolving each vial supplied by the vendor in Hank's balanced salt solution buffer (HBSS) or 150 mM NMDG, 20 mM CaCl2 containing 10 mM HEPES, The stock solution was diluted 1:20 using the same buffer before use. The growth media was removed from the cells. The cells were loaded with 100 μl of the dye per well and incubated at room temperature for up to one hour for HEK 293 clonal stable cell lines or 30 minutes-45 minutes at 37° C. for IMR-32 cells Fluorescence measurements were read simultaneously from all the wells by a Fluorometic Imaging Plate Reader (FLIPR) at an excitation wavelength of 480 nm and an emission wavelength of 520 nm. Baseline fluorescence was measured for the first 6 seconds at which 3× concentrations of modulator/test compounds were added to the cell plate at 50 μl and incubated for five minutes. The fluorescence intensity was captured every second for the first 1 minute followed by every 5 seconds for an additional 4 minutes. This procedure was followed by 50 μl of 4× concentration of agonist and readings were taken for a period of 3-5 minutes as described above. Data was normalized to maximal responses and plotted as a function of concentration. The concentration dependence of changes fluorescence responses was fitted by nonlinear regression analysis (GraphPad Prism, San Diego, Calif.) to obtain EC50 values.
The positive allosteric modulator effects on α4β2 nAChRs exemplified by 3-(3-pyridin-3-yl-1,2,4-oxadiazol-5-yl)benzonitrile (Compound 1) and 3,5-di(pyridin-3-yl)-1,2,4-oxadiazole (Compound 2) can be identified by measuring their potentiating effect to fluorescence changes in intracellular calcium using a fluorimetric plate reader. The potentiating effect of an α4β2 modulator on α4β2 receptor can also be illustrated by concentration responses to α4β2 agonists, for example 5-[(2R)-azetidin-2-ylmethoxy]-2-chloropyridine (Compound A) and (3R)-1-pyridin-3-ylpyrrolidin-3-amine (Compound B), in presence of a fixed concentration of PAM. […] In addition to compound A and B, other known nicotinic agonists can be left-shifted in presence of α4β2 PAM such as […]. […] This could lead to preferential effects of the agonist at the desired subtype, viz., α4β2, without effects at other nicotinic receptor subtypes and thus enhancing in vivo selectivity of the agonist.
The activity (allosteric effects—potentiation of fluorescence responses) ranges are defined as follows; “a” denotes as activity range from 200-400%, “b” denotes an activity range from 150-200%, “c” denotes an activity range from 120-150% and “d” denotes an activity range 90-120%. […]

[3] = target: T2, human α3β4 nicotinic acetylcholine receptor (Homo sapiens, UniProt P30926+P32297); test: Calcium flux (FLIPR) assay, HEK-293 cells expressing human α3β4 nAChR; assay type: cell-based; settings: for calcium response of partial agonist co-applied with PAM: co-applied with PAM Compound 1, α3β4 nAChRs
T2 construct: expressed in transfected cells
Procedure: as §1, with “A stock solution of the dye was prepared by dissolving each vial supplied by the vendor in Hank's balanced salt solution buffer (HBSS) or 150 mM NMDG, 20 mM CaCl2 containing 10 mM HEPES, The stock solution was diluted 1:20 using the same buffer before use. The growth media was removed from the cells.” left out, “Data was normalized to maximal responses and plotted as a function of concentration.” left out, “values. […]” for “values.”

emesis = test: Emesis in ferrets; assay type: in vivo; settings: ferret
Procedure: Fasted male ferrets (Marshall BioResources, North Rose, N.Y.) weighing between 1.0 and 1.7 kg are used to determine the emetic effects. α4β2 PAM (Compound 1) was administered first and thirty minutes later, Compound A was administered at various doses. […] The percentage of animals that experienced emesis at a given dose was recorded.

[4] = Compound 1 3.5 μmol/kg with various doses of Compound A

T1 sequence (P43681 29-627 limits assumed): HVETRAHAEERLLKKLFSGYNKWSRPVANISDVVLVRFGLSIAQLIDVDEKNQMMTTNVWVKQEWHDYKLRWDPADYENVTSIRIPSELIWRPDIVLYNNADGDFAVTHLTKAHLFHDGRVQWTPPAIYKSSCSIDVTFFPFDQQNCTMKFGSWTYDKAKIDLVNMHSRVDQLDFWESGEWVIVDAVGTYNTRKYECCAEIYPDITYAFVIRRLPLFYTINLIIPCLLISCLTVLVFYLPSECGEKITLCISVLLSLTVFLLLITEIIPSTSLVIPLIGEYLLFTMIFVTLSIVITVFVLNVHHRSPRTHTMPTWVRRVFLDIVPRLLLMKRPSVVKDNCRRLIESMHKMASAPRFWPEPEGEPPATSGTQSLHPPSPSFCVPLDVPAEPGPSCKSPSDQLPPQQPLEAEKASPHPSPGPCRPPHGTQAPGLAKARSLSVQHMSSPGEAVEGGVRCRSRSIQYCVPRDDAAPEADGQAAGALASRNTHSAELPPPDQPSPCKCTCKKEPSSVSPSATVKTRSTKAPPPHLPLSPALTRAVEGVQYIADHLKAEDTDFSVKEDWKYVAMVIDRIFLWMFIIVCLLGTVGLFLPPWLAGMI
T1 sequence (P17787 26-502): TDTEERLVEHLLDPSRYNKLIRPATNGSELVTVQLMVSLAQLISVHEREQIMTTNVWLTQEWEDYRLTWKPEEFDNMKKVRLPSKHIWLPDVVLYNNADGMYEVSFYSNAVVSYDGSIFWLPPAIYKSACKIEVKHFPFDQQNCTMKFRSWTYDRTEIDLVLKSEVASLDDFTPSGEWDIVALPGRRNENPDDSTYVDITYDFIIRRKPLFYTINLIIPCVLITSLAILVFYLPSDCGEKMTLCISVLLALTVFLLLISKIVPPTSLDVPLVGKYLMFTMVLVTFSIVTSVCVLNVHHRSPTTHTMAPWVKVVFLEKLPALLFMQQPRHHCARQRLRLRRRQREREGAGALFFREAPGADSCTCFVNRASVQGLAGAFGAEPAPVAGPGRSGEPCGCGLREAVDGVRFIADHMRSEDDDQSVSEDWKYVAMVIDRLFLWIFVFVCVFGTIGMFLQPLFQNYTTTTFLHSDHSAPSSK
T2 sequence (P32297 32-505): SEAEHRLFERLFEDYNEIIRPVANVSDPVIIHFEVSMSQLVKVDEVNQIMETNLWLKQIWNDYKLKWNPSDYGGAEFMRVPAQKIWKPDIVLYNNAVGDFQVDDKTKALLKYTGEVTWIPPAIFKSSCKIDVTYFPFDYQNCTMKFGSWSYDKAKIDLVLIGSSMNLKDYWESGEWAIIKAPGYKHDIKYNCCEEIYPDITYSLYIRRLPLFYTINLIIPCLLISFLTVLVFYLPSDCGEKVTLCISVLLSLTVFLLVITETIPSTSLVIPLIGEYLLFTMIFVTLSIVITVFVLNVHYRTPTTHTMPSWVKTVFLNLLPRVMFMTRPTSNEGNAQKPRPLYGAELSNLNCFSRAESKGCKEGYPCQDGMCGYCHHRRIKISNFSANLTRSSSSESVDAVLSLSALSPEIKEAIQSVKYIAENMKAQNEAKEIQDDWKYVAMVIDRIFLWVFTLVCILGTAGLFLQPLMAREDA
T2 sequence (P30926 22-498): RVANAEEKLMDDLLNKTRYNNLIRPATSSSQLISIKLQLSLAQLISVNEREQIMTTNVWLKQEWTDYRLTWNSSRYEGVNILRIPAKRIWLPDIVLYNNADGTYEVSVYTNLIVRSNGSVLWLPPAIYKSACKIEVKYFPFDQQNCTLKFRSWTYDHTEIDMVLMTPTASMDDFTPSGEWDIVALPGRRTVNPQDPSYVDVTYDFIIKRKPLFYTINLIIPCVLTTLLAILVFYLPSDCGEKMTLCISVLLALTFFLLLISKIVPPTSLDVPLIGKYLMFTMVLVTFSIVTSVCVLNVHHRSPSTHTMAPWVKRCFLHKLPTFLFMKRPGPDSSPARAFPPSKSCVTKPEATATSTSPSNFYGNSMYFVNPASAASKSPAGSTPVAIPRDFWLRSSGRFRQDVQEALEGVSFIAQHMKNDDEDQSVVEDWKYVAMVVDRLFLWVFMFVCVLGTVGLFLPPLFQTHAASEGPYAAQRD

## Clc1ccc(OC[C@H]2CCN2)cn1 [Compound A, 5-[(2R)-azetidin-2-ylmethoxy]-2-chloropyridine]
[1]; 1 nmol/kg, alone
  efficacy in neuropathic pain: ineffective
[1]; 0.03 μmol/kg, alone
  mechanical paw withdrawal threshold (PWT): 5.6 ± 0.3 g
[1]; Compound A 1 nmol/kg combined with varying doses of PAM Compound 1
  efficacy in neuropathic pain: dose-dependent increase in efficacy

## Cc1ncccc1OC[C@@H]1CCCN1 [Compound C, 2-methyl-3-(2-(S)-pyrrolidinylmethoxy)pyridine, reference compound]
[2]
  calcium response of partial agonist alone: does not evoke a calcium response
  calcium response of partial agonist co-applied with PAM: evoked robust responses
[3]
  calcium response of partial agonist co-applied with PAM: not at α3β4 nAChRs

## c1ccc2ncc(N3C[C@@H]4CN[C@@H]4C3)cc2c1 [Compound D, (1S,5S)-3-(3,6-diaza-bicyclo[3.2.0]hept-3-yl)-quinoline]
[2]
  calcium response of partial agonist alone: does not evoke a response
  calcium response of partial agonist co-applied with PAM: evoked robust responses
[3]
  calcium response of partial agonist co-applied with PAM: not at α3β4 nAChRs
[1]; alone
  efficacy in neuropathic pain, administered alone: ineffective in reversing neuropathic pain
[1]; co-dosed with Compound 1
  efficacy in neuropathic pain, co-dosed with α4β2 PAM: significant relief of neuropathic pain

## N#Cc1cccc(-c2nc(-c3cccnc3)no2)c1 [Example 1, 3-(3-(pyridin-3-yl)-1,2,4-oxadiazol-5-yl)benzonitrile]
[2]
  Activity (allosteric effects—potentiation of fluorescence responses): a (“a” denotes as activity range from 200-400%)
[3]; cells expressing α3β4, agonists Compound A and Compound B
  effect of PAM on concentration responses to the agonists: unable to affect the concentration responses to the agonists
[1]; 10 mg/kg, alone
  mechanical paw withdrawal threshold (PWT): 3.3 ± 0.4 g
[1]; [4]
  shift of neuropathic pain dose response curve of Compound A: left-shifting the dose response curve of Compound A
[1]; alone
  efficacy in neuropathic pain, administered alone: ineffective
emesis; [4]
  shift of emesis dose response curve of Compound A: does not shift the dose response curve of Compound A
emesis; alone
  emesis: does not cause emesis

## Fc1ccc(-c2nc(-c3ccnnc3)no2)cc1F [Example 83, 5-(3,4-Difluorophenyl)-3-(pyridazin-4-yl)-1,2,4-oxadiazole hydrochloride]
[2]
  Activity (allosteric effects—potentiation of fluorescence responses): a (“a” denotes as activity range from 200-400%)

## Fc1ccc(-c2nc(-c3cncnc3)no2)cc1F [Example 101, 5-(3,4-difluorophenyl)-3-(pyrimidin-5-yl)-1,2,4-oxadiazole tosylate]
[2]
  Activity (allosteric effects—potentiation of fluorescence responses): a (“a” denotes as activity range from 200-400%)

## O=c1[nH]c2cc(-c3nc(-c4cccnc4)no3)ccc2o1 [Example 125, 5-(3-(pyridin-3-yl)-1,2,4-oxadiazol-5-yl)benzo[d]oxazol-2(3H)-one]
[2]
  Activity (allosteric effects—potentiation of fluorescence responses): a (“a” denotes as activity range from 200-400%)

## O=c1[nH]c2cc(-c3noc(-c4cccnc4)n3)ccc2o1 [Example 132, 5-(5-(pyridin-3-yl)-1,2,4-oxadiazol-3-yl)benzo[d]oxazol-2(3H)-one]
[2]
  Activity (allosteric effects—potentiation of fluorescence responses): a (“a” denotes as activity range from 200-400%)

## CN[C@@H](C)C/C=C/c1cncc(OC(C)C)c1 [ispronicline, reference compound]
[2]
  potency (EC50 values) for activation of α4β2 nAChRs in the presence vs absence of PAM: increase in the presence of the positive allosteric modulator

## c1cnc2cc3c(cc2n1)[C@@H]1CNC[C@H]3C1 [varenicline, reference compound]
[2]
  potency (EC50 values) for activation of α4β2 nAChRs in the presence vs absence of PAM: increase in the presence of the positive allosteric modulator

Reference: patent US8486979B2, “1,2,4 oxadiazole compounds and methods of use thereof” (AbbVie Inc., priority 2006, dated 2013)
